Data reported in the supplement of paper PMC5908809.

Legend:
[1] = system: normal primary NK cells, pool 3 (3 donors) (IL-2 2.5 ng/mL); assay: percent inhibition of viability; higher = more inhibition; details: 72 h
[2] = system: YT (IL-2 2.5 ng/mL); assay: as above; details: 72 h
[3] = system: NK-YS (IL-2 2.5 ng/mL); assay: as above; details: 72 h
[4] = system: KHYG-1 (IL-2 2.5 ng/mL); assay: as above; details: 72 h
[5] = system: normal primary NK cells, pool 1 (3 donors), resting (IL-2 0 ng/mL); assay: as above; details: 72 h
[6] = system: KAI3 (IL-2 2.5 ng/mL); assay: as above; details: 72 h
[7] = system: NK-92 (IL-2 2.5 ng/mL); assay: as above; details: 72 h
[8] = system: NKL (IL-2 2.5 ng/mL); assay: as above; details: 72 h
[9] = system: normal primary NK cells, pool 2 (3 donors) (IL-2 2.5 ng/mL); assay: as above; details: 72 h
[10] = system: DERL-7 (IL-2 2.5 ng/mL); assay: as above; details: 72 h
[11] = system: SNK-6 (IL-2 2.5 ng/mL); assay: as above; details: 72 h
[12] = system: normal primary NK cells, pool 1 (3 donors) (IL-2 2.5 ng/mL); assay: as above; details: 72 h
[13] = system: IMC-1 (IL-2 20 ng/mL); assay: as above; details: 72 h
[14] = system: normal NK cells expanded with K562-aAPC; assay: drug sensitivity score (DSS) (DSS units); higher = more sensitive; extreme values may be limits of the assay; details: 72 h; IL-2 2.5 ng/mL
Protocol: (§1)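 Drug sensitivity and resistance testing on K562-aAPC-expanded normal NK cells: 5 concentrations (10-fold steps over a 10,000-fold range), 72 h at 37 °C, viability by CellTiter-Glo normalised to DMSO and benzethonium chloride controls; DSS from the fitted curve.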

[15] = system: normal primary NK cells, pool 3 (3 donors) (IL-2 2.5 ng/mL); assay: as above; details: 72 h
[16] = system: YT (IL-2 2.5 ng/mL); assay: as above; details: 72 h
[17] = system: NK-YS (IL-2 2.5 ng/mL); assay: as above; details: 72 h
[18] = system: KHYG-1 (IL-2 2.5 ng/mL); assay: as above; details: 72 h
[19] = system: normal primary NK cells, pool 1 (3 donors), resting (IL-2 0 ng/mL); assay: as above; details: 72 h
[20] = system: KAI3 (IL-2 2.5 ng/mL); assay: as above; details: 72 h
[21] = system: NK-92 (IL-2 2.5 ng/mL); assay: as above; details: 72 h
[22] = system: NKL (IL-2 2.5 ng/mL); assay: as above; details: 72 h
[23] = system: normal primary NK cells, pool 2 (3 donors) (IL-2 2.5 ng/mL); assay: as above; details: 72 h
[24] = system: DERL-7 (IL-2 2.5 ng/mL); assay: as above; details: 72 h
[25] = system: SNK-6 (IL-2 2.5 ng/mL); assay: as above; details: 72 h
[26] = system: normal primary NK cells, pool 1 (3 donors) (IL-2 2.5 ng/mL); assay: as above; details: 72 h
[27] = system: IMC-1 (IL-2 20 ng/mL); assay: as above; details: 72 h
[28] = system: normal NK cells expanded with K562-aAPC; assay: percent inhibition of viability; higher = more inhibition; details: 72 h, IL-2 2.5 ng/mL
Protocol: as §1

COC(=O)c1ccc2c(c1)NC(=O)/C2=C(\Nc1ccc(N(C)C(=O)CN2CCN(C)CC2)cc1)c1ccccc1 [Nintedanib] (max concentration tested 10000 nM)
percent inhibition of viability [%]
Details	1 nM	10 nM	100 nM	1000 nM	10000 nM
[1]	-18.1	-18.2	-5.82	5.55	99.6
[2]	-2.16	-1.03	-3.64	7.19	99.3
[3]	-4.51	-2.23	-3.24	20.9	99.6
[4]	-5.39	-3.23	-3.31	20.3	99.6
[5]	-8.23	-15.9	-15.4	47	94.9
[6]	-8.46	-2.04	1.37	16.4	93.4
[7]	-4.93	2.39	-1.05	45.4	99.4
[8]	-7.94	-17.2	-2.91	56.5	100
[9]	-15.7	-1.56	-14	23.9	99.2
[10]	-8.99	0.01	2.16	38.1	100
[11]	16.6	7.57	-2.75	-31.8	83.2
[12]	-7.78	-11	-5.14	38.2	98.9
[13]	-8.95	-2.57	-11.3	-22.3	100
[28]	-0.08	-2.82	8.47	31	100

Details	drug sensitivity score
[14]	9.6
[15]	6.33
[16]	6.61
[17]	8.84
[18]	8.76
[19]	11.1
[20]	7.87
[21]	11.3
[22]	12.3
[23]	9.18
[24]	10.7
[25]	3.37
[26]	10.6
[27]	4.45

Cc1sc2c(c1C)C(c1ccc(Cl)cc1)=N[C@@H](CC(=O)Nc1ccc(O)cc1)c1nnc(C)n1-2 [OTX015] (max concentration tested 10000 nM)
percent inhibition of viability [%]
Details	1 nM	10 nM	100 nM	1000 nM	10000 nM
[1]	-1.79	8.04	9.85	28.3	57.8
[2]	-1.39	-5.05	12.7	50.1	56.8
[3]	-0.13	1.91	28.4	62.4	81.9
[4]	-1.24	-0.67	38.7	91	106
[5]	-3.45	11.8	18.6	34.9	49.6
[6]	3.12	-12.4	6.28	43.9	56.6
[7]	-10.2	-31	-32.9	22.6	36.9
[8]	6.07	1.36	45.3	69.8	73.4
[9]	-6.93	6.42	15.3	54.1	76.5
[10]	1.92	24	62	95.8	100
[11]	15.4	3.9	54.7	66.5	49.5
[12]	-1.64	12.5	32.6	59.5	80.1
[13]	-7.07	-8.73	1.26	73.2	97.4
[28]	-2.53	-1.01	4.29	35.6	59.9

Details	drug sensitivity score
[14]	7.54
[15]	6.65
[16]	10.8
[17]	15.2
[18]	21.6
[19]	8.82
[20]	8.88
[21]	4.42
[22]	18.9
[23]	12.1
[24]	26.7
[25]	19.3
[26]	15.7
[27]	13.8

COC(=O)C[C@](O)(CCCC(C)(C)O)C(=O)O[C@@H]1C(OC)=C[C@]23CCCN2CCc2cc4c(cc2[C@H]13)OCO4 [Omacetaxine] (max concentration tested 10000 nM)
percent inhibition of viability [%]
Details	1 nM	10 nM	100 nM	1000 nM	10000 nM
[1]	9.72	46.5	96.3	97.1	99.5
[2]	-7.92	19.8	98.2	107	108
[3]	1.36	1.43	100	105	108
[4]	-7.86	-9.89	102	106	107
[5]	39.6	89.8	90.3	89.8	91.4
[6]	29.6	46.7	101	105	106
[7]	1.68	7.27	100	106	108
[8]	3.97	2.74	99.8	107	108
[9]	4.96	73.8	93.2	93.8	95.3
[10]	5.07	60.5	100	101	101
[11]	0.3	72.3	95.2	95.4	99.9
[12]	1.78	69	96.7	96.5	99
[13]	-8.96	-3.07	99.7	101	101
[28]	3.7	16	93.1	101	101

Details	drug sensitivity score
[14]	31.6
[15]	35.4
[16]	33.7
[17]	30.6
[18]	29.9
[19]	43.6
[20]	37.1
[21]	31.6
[22]	30.8
[23]	38.4
[24]	37.8
[25]	38.8
[26]	38.4
[27]	30.1

COc1ncc(-c2ccc3nccc(-c4ccnnc4)c3c2)cc1NS(=O)(=O)c1ccc(F)cc1F [Omipalisib] (max concentration tested 1000 nM)
percent inhibition of viability [%]
Details	0.1 nM	1 nM	10 nM	100 nM	1000 nM
[1]	-11.3	-2.43	7.07	5.39	36.4
[2]	-0.94	1.51	27.5	54.4	79.8
[3]	-0.6	1.69	13.2	53.7	73.3
[4]	1.89	1.24	8.6	40.2	91.6
[5]	2.21	9.83	13.8	26.6	49.1
[6]	2.3	36.1	15.3	35.5	62.9
[7]	3.62	20.4	32.1	48.6	69.9
[8]	-9.37	0.19	6.59	54.9	80.4
[9]	-6.47	2.05	24.7	24.7	47.5
[10]	1.39	16.9	45.5	77.3	95.7
[11]	8.44	2.37	-0.31	30.5	61.5
[12]	-10	-4.5	18.5	20.1	40
[13]	-0.58	-1.71	-11.8	-32.5	29.1
[28]	3.51	3.67	20.4	44.6	55.5

Details	drug sensitivity score
[14]	10.6
[15]	2.64
[16]	13.7
[17]	11.7
[18]	9.7
[19]	6.75
[20]	12.9
[21]	14.8
[22]	11.4
[23]	7.36
[24]	21
[25]	7.24
[26]	5.18
[27]	0.6

Cc1[nH]c(/C=C2\C(=O)Nc3ccccc32)c(C)c1CCC(=O)O [Orantinib] (max concentration tested 10000 nM)
percent inhibition of viability [%]
Details	1 nM	10 nM	100 nM	1000 nM	10000 nM
[1]	-4.8	2.21	11.9	-1.68	9.39
[2]	-3.34	1.08	0.41	8.54	18.7
[3]	-6.4	-2.5	-1.18	7.48	23.9
[4]	-7.11	-2.97	-4.54	8.46	13.8
[5]	-0.49	20.7	11.4	12.2	21.7
[6]	0.42	1.13	-2.39	7	29.4
[7]	-10.9	-1.51	-13.1	11.1	13
[8]	-19.2	-18.2	-1.7	6.18	14.6
[9]	-0.89	-3.13	6.7	-0.82	5.48
[10]	1.12	-2.21	-6.87	-10.2	-8.27
[11]	-0.4	10.2	3.89	15.8	-2.27
[12]	-0.7	9.63	7.39	4.16	9.93
[13]	-7.71	-4.44	-5.94	1.86	11
[28]	-1.66	-4.19	-1.4	6.04	9.43

Details	drug sensitivity score
[14]	0
[15]	0
[16]	1.23
[17]	1.86
[18]	0.65
[19]	3.33
[20]	2.32
[21]	0.62
[22]	0.67
[23]	0
[24]	0
[25]	0
[26]	0
[27]	0.04
